Holding throughout (type): cell-based
The target of experiment [1] is T1, BB3 (Homo sapiens, UniProt P32247).
T1 construct: hIL-2Ra signal peptide (N); expressed in transfected cells
T1 sequence (P32247 2-399 limits assumed): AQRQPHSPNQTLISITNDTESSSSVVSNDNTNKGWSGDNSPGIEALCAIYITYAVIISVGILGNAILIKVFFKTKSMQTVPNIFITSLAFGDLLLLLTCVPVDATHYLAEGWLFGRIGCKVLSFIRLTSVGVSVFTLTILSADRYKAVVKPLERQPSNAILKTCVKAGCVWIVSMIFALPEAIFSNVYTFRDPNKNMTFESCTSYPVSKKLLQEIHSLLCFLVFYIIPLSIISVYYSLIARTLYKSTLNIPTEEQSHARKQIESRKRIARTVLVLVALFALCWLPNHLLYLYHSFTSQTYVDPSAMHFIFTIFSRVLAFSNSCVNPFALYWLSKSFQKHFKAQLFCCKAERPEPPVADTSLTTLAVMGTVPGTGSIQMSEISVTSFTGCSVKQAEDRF
Description: Dynamic mass redistribution (DMR), concentration-response. The note with it: mean, SEM and n (3).

In experiment [2] the target is T1, BB3. As to the kind of experiment: IP1 accumulation (Gq/11), HTRF. The note with it: mean, SEM and n (2-4). On the technique in general: Time-resolved FRET reads energy transfer from a long-lived donor to a nearby acceptor.
A further experiment addresses GPR55 (Homo sapiens, UniProt Q9Y2T6). Description: Real-time receptor internalization (TR-FRET), concentration-response. Details: hIL-2Ra signal peptide (N); expressed in transfected cells. As to the method: 48 hr prior to parallel assaying, SNAP-tagged oGPCR cells were plated (10,000 cells/well) in fibronectin-coated 384-well Epic biosensor microplates (Corning) and poly-D-lysine coated white 384-well plates (for internalization assays). SNAP- GLP-1 receptor was plated alongside orphan receptor cells as an internal assay control for internalization assays. Receptor-expression was induced with 0.1 μg/ml doxycycline.
A TR-FRET real-time internalization assay was used to examine peptide-dependent changes in orphan receptor localization as described previously ([Foster and Bräuner-Osborne, 2018]). Surface-expressed SNAP-tagged receptors were labeled with a cell-impermeable luminescent terbium cryptate (100 nM SNAP Lumi4-Tb; Cisbio, France) for 1 hr at 37°C. Cells were washed to remove excess terbium and incubated with fluorescein-O-acetic acid (100 μM; Sigma Aldrich) for 5 min at 37°C. Peptides were added as for DMR assays, and internalization responses were recorded for 60 min at 37°C using an EnVision 2104 Multimode plate reader (PerkinElmer). 100 nM GLP-1 was used as a positive control for SNAP-GLP1R internalization. Real-time internalization responses were calculated based on TR-FRET (excitation 340 nm; emission 520 nm and 615 nm), and were expressed as the ratio between donor (terbium) and acceptor (fluorescein) emission. For peptide screening analysis (both DMR and internalization assays), we calculated the area under the curve from the real-time traces. […] Validation experiments for receptor internalization were performed as above. Internalization data was processed in MS-Excel and area under the curve was used to generate concentration-response curves using GraphPad Prism 7.0. Data represent mean ± standard error of the mean (SEM) from at least 3 biologically independent experiments.

The mark [3] stands for this setting: receptor GPR55, mean, SEM and n (3-4), read-out: Internalization assays pEC50 (converted).

Read-outs that look alike come from different tables or passages of the source. Residues, ends and D or L forms follow the SMILES beside them.

Chain of GPR55 (Q9Y2T6 2-319 limits assumed): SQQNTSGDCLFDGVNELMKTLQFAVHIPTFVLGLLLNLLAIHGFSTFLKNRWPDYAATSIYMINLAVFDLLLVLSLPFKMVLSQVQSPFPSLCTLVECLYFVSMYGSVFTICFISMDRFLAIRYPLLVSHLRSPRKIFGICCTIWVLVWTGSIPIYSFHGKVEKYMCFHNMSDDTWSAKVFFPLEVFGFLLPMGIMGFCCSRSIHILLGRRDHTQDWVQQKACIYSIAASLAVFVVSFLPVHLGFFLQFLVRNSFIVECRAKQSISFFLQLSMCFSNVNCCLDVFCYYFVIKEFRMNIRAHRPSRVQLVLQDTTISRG

Turning to `CSCC[C@H](NC(=O)[C@H](Cc1ccccc1)NC(=O)CNC(=O)CNC(=O)[C@@H](N)Cc1ccc(O)cc1)C(=O)O` [158.1 (Phoenix)], the EC50 on BB3 [1] (DMR assays pEC50, receptor BB3) is 64.6 nM; on BB3 [2] (IP1 accumulation assays pEC50, receptor BB3), 12.6 nM. Turning to `CC(C)C[C@H](NC(=O)[C@H](CCCCN)NC(=O)[C@H](CCC(N)=O)NC(=O)[C@@H](NC(=O)[C@H](CCCCN)NC(=O)[C@H](CO)NC(=O)[C@H](Cc1ccc(O)cc1)NC(=O)[C@H](Cc1c[nH]cn1)NC(=O)[C@H](Cc1ccccc1)NC(=O)[C@H](CC(C)C)NC(=O)[C@@H](N)Cc1ccccc1)[C@@H](C)O)C(=O)NCC(=O)N[C@@H](CCCCN)C(=O)N[C@@H](CO)C(=O)N[C@@H](CC(N)=O)C(=O)N[C@H](C(=O)N[C@H](C(=O)N[C@@H](CO)C(=O)N[C@@H](CO)C(=O)N[C@H](C(=O)N[C@H](C(=O)N[C@@H](Cc1c[nH]cn1)C(=O)N1CCC[C@H]1C(=O)N[C@@H](CC(C)C)C(=O)N[C@@H](CC(C)C)C(=O)N[C@@H](CCC(N)=O)C(=O)N[C@@H](CC(C)C)C(=O)N[C@H](C(=O)N1CCC[C@H]1C(=O)N[C@@H](Cc1c[nH]cn1)C(=O)N[C@@H](CC(C)C)C(=O)N[C@@H](Cc1c[nH]cn1)C(=O)N[C@@H](CCC(=O)O)C(=O)O)C(C)C)C(C)C)C(C)C)C(C)C)C(C)C` [Peptide 67.1] (H-FLFHYSKTQKLGKSNVVSSVVHPLLQLVPHLHE-OH), the EC50 was 32400 nM at BB3 [1] (receptor BB3, read-out: DMR assays pEC50 (converted)) and 4270 nM at BB3 [2] (receptor BB3, read-out: IP1 accumulation assays pEC50 (converted)). Turning to `CC[C@H](C)[C@H](NC(=O)[C@H](CC(=O)O)NC(=O)[C@@H](NC(=O)[C@H](Cc1ccc(O)cc1)NC(=O)[C@@H](NC(=O)CNC(=O)[C@H](CC(N)=O)NC(=O)[C@@H](NC(=O)[C@H](CC(C)C)NC(=O)[C@H](Cc1ccc(O)cc1)NC(=O)[C@H](CC(=O)O)NC(=O)[C@H](CC(C)C)NC(=O)[C@H](CCCNC(=N)N)NC(=O)[C@H](CO)NC(=O)[C@H](Cc1ccc(O)cc1)NC(=O)[C@H](CCCNC(=N)N)NC(=O)[C@@H](N)CCCCN)[C@@H](C)CC)[C@@H](C)CC)C(C)C)C(=O)O` [Peptide 114] (H-KRYSRLDYLINGIYVDI-OH; N-terminus assumed), the EC50 at GPR55 (read-out: pEC50, internalization, GPR55 (converted)) was more than 10000 nM. `CC(C)C[C@H](NC(=O)[C@@H](NC(=O)[C@H](C)NC(=O)[C@H](C)NC(=O)[C@H](CC(C)C)NC(=O)[C@@H](N)Cc1ccc(O)cc1)C(C)C)C(N)=O` [Peptide 168.2] (H-YLAAVL-NH2): on GPR55 (setting [3]), the EC50 is 20400 nM. Take `CSCC[C@H](NC(=O)[C@@H](N)CCC(N)=O)C(=O)N[C@@H](C)C(=O)N[C@H](C(=O)N[C@@H](CCCCN)C(=O)N[C@@H](CCCCN)C(=O)N[C@@H](Cc1ccc(O)cc1)C(=O)N[C@@H](CC(C)C)C(=O)N[C@@H](C)C(=O)N[C@@H](C)C(=O)N[C@H](C(=O)N[C@@H](CC(C)C)C(N)=O)C(C)C)C(C)C` [Peptide 168.3]: the EC50 on GPR55 (setting [3]) is 0.219 nM. For the compound `CC[C@H](C)[C@H](NC(=O)CNC(=O)[C@H](CC(=O)O)NC(=O)[C@H](CO)NC(=O)[C@@H](N)Cc1c[nH]cn1)C(=O)N[C@@H](Cc1ccccc1)C(=O)N[C@H](C(=O)N[C@@H](CC(=O)O)C(=O)N[C@@H](CO)C(=O)N[C@@H](Cc1ccc(O)cc1)C(=O)N[C@@H](CO)C(=O)N[C@@H](CCCNC(=N)N)C(=O)N[C@@H](Cc1ccc(O)cc1)C(=O)O)[C@@H](C)O` [Peptide 168.4] (H-HSDGIFTDSYSRY-OH), the EC50 at GPR55 (setting [3]) was 316 nM.

Values taken from publication PMC6838683, “Discovery of Human Signaling Systems: Pairing Peptides to G Protein-Coupled Receptors” (Cell, 2019).
